{"source": "patent US6455472B1", "about": "“Phenyl-substituted cyclic enaminones” (Bayer Aktiengesellschaft, priority 1998, dated 2002)", "data": [{"test_system": "weeds", "test": "Pre-emergence test, weeds", "type": "in vivo", "settings": "soil watered 24 hours after sowing, assessed after three weeks, application rate not stated", "description": "(§1) Solvent: 5 parts by weight of acetone\n(§2) Emulsifier: 1 part by weight of alkylaryl polyglycol ether\n(§3) To produce a suitable preparation of active compound, 1 part by weight of active compound is mixed with the stated amount of solvent, the stated amount of emulsifier is added and the concentrate is diluted with water to the desired concentration.\nSeeds of the test plants are sown in normal soil and, after 24 hours, watered with the preparation of active compound. The amount of water per unit area is advantageously kept constant. The concentration of active compound in the preparation is immaterial, only the active compound application rate per unit area matters. After three weeks, the degree of damage to the plants is assessed in % damage in comparison with the development of the untreated control.", "values": [{"smiles": "N#C/C(C(=O)c1ccc(-c2ccc(Cl)cc2)cc1)=C1\\CCCCN1", "note": "[I-1-a-54, 3-(4′-chloro-biphenyl-4-yl)-3-oxo-2-piperidin-2-ylidene-propionitrile]", "activity against weeds (% damage)": "strong activity"}]}, {"test_system": "caterpillars of the army worm (Spodoptera frugiperda)", "test": "Spodoptera frugiperda test", "type": "in vivo", "settings": "cabbage leaves (Brassica oleracea) dipped into preparation of active compound; concentration and time not stated", "description": "Solvent: 7 parts by weight of dimethylformamide\nEmulsifier:: 1 part by weight of alkylaryl polyglycol ether\nTo produce a suitable preparation of active compound, 1 part by weight of active compound is mixed with the stated amounts of solvent and emulsifier, and the concentrate is diluted with water to the desired concentration.\nCabbage leaves (Brassica oleracea) are treated by being dipped into the preparation of active compound of the desired concentration and are populated with caterpillars of the army worm (Spodoptera frugiperda) while the leaves are still moist.\nAfter the desired period of time, the kill in % is determined. 100% means that all caterpillars have been killed; 0% means that none of the caterpillars have been killed.", "values": [{"smiles": "N#CC(C(=O)c1ccc(Cl)cc1)=C1CCCN1Cc1ccc(Cl)nc1", "note": "[Preparation Example 3, 3-(4-chlorophenyl)-2-[1-(6-chloropyridin-3-yl-methyl)-pyrrolidin-2-yli-dene]-3-oxo-propionitrile]", "activity (kill in %) against Spodoptera frugiperda caterpillars": "good activity"}]}, {"test_system": "weeds", "test": "Post emergence test, weeds", "type": "in vivo", "settings": "sprayed, assessed after 3 weeks, application rate not stated", "description": "as §1, §2, §3\nTest plants which have a height of 5 to 15 cm are sprayed with the preparation of active compound such that the particular desired amounts of active compound are applied per unit area. After 3 weeks, the degree of damage to the plants is assessed in % damage in comparison to the development of the untreated controls.", "values": [{"smiles": "N#C/C(C(=O)c1ccc(-c2ccc(Cl)cc2)cc1)=C1\\CCCCN1", "note": "[I-1-a-54, 3-(4′-chloro-biphenyl-4-yl)-3-oxo-2-piperidin-2-ylidene-propionitrile]", "activity against weeds (% damage)": "strong activity"}]}, {"test_system": "not given", "test": "not given", "settings": "not given", "units": {"melting point": "°C"}, "values": [{"smiles": "CCOC(=O)C1CC/C(=C(\\C#N)C(=O)c2ccc(Cl)cc2)N1", "note": "(centres unmarked) [Example 7, ethyl 5-[2-(4-chloro-phenyl)-1-cyano-2-oxo-ethylidene]-pyrrolidine-2-carboxylate]", "melting point": "108 to 110"}, {"smiles": "N#C/C(C(=O)c1ccc(NS(=O)(=O)C(F)(F)F)cc1)=C1\\CCCCN1", "note": "[I-1-a-138, 3-[4-(trifluoromethanesulphonylamino)-phenyl]-3-oxo-2-piperidin-2-ylidene-propionitrile]", "melting point": 197}, {"smiles": "N#C/C(C(=S)c1ccc(Cl)cc1)=C1\\CCCCN1", "note": "[I-1-a-151, 3-(4-chloro-phenyl)-3-thio-2-piperidin-2-ylidene-propionitrile]", "melting point": 137}, {"smiles": "N#C/C(C(=O)c1ccc(Cl)cc1)=C1\\CCCN1C(=O)c1ccc(Cl)cc1", "note": "[Example 5, 2-[1-(4-chlorobenzoyl)pyrrolidin-2-ylidene]-3-(4-chlorophenyl)-3-oxo-propionitrile]", "melting point": 218}, {"smiles": "N#C/C(C(=O)c1ccc(-c2ccc(Cl)cc2)cc1)=C1\\CCCCN1", "note": "[I-1-a-54, 3-(4′-chloro-biphenyl-4-yl)-3-oxo-2-piperidin-2-ylidene-propionitrile]", "melting point": 134}, {"smiles": "N#C/C(C(=O)c1ccc(Cl)cc1)=C1\\CCCN1", "note": "[Example 1, 3-(4-chlorophenyl)-3-oxo-2-pyrrolidin-2-ylidene-propionitrile]", "melting point": "156 to 158"}, {"smiles": "N#C/C(C(=O)c1ccc(SCC(=O)O)nc1)=C1\\CCCCN1", "note": "[I-2-a-7]", "melting point": 155}, {"smiles": "CN1CCC/C1=C(\\C#N)C(=O)c1ccc(Cl)cc1", "note": "[I-1-a-110, 3-(4-chloro-phenyl)-3-oxo-2-(1-methyl-pyrrolidin-2-ylidene)-propionitrile]", "melting point": 115}, {"smiles": "COC(=O)CSc1ccc(C(=O)/C(C#N)=C2/CCCCN2)cn1", "note": "[I-2-a-6]", "melting point": 146}, {"smiles": "N#C/C(C(=O)c1ccc(Cl)cc1)=C1\\CCC(C(=O)O)N1", "note": "(centres unmarked) [Example 8, 5-[2-(4-chloro-phenyl)-1-cyano-2-oxo-ethylidene]-pyrrolidine-2-carboxylic acid]", "melting point": "134 to 136"}, {"smiles": "CCOC(=O)C1CC/C(=C(\\C#N)C(=O)c2ccccc2Cl)N1", "note": "(stereo not drawn) [I-1-d-4]", "melting point": "222 to 224"}]}]}
